Results published in ChEMBL document CHEMBL4229538, “Design, synthesis and structure-activity relationship of diaryl-ureas with novel isoxazol[3,4-b]pyridine-3-amino-structure as multi-target inhibitors against receptor tyrosine kinase” (Bioorg Med Chem, 2018).
One block for each compound: values may come before it.

Legend:
[1] = target: Platelet-derived growth factor receptor beta (Homo sapiens, UniProt P09619); assay: Inhibition of human PDGFRbeta using biotin labeled substrate after 1 hr by HTFR assay
[2] = tested on: MV4-11; assay: Antiproliferative activity against human MV4-11 cells after 72 hrs by cell titer glo-based fluorescence assay; details: MV4-11, 72 h
[3] = tested on: HUVEC; assay: Antiproliferative activity against HUVEC after 72 hrs by cell titer glo-based fluorescence assay; details: Homo sapiens
[4] = tested on: MCF7; assay: Antiproliferative activity against human MCF7 cells after 72 hrs by cell titer glo-based fluorescence assay; details: MCF7, 72 h
[5] = target: Vascular endothelial growth factor receptor 2 (Homo sapiens, UniProt P35968)
Description: Inhibition of human KDR using biotin labeled substrate after 1 hr by HTFR assay

[6] = target: T1, Receptor-type tyrosine-protein kinase FLT3 (Homo sapiens, UniProt P36888)
T1 sequence (P36888 whole entry): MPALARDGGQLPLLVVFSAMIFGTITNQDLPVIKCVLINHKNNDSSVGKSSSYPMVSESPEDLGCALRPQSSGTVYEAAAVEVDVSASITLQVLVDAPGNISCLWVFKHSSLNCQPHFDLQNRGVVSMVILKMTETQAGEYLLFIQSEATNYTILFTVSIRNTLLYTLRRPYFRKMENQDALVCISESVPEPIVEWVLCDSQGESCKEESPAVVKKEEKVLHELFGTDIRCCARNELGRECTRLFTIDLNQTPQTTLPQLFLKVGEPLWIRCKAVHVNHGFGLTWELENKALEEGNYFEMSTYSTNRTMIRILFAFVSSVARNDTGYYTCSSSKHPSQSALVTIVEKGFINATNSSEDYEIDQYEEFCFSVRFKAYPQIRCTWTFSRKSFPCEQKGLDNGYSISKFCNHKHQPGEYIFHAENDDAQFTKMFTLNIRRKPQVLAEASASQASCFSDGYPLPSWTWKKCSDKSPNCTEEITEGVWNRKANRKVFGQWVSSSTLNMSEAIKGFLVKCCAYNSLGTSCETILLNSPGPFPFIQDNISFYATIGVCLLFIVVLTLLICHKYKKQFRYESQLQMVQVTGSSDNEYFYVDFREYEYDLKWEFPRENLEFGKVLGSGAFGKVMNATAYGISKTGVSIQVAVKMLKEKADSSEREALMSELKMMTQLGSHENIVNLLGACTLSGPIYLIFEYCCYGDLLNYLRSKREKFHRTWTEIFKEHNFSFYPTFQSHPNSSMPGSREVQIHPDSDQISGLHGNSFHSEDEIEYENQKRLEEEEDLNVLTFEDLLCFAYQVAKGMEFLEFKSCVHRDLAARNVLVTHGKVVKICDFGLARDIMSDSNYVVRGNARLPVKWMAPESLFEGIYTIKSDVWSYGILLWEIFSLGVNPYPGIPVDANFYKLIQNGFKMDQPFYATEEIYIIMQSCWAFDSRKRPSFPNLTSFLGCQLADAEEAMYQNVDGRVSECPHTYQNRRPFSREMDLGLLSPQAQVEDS
Description: Inhibition of human FLT3 using biotin labeled substrate after 1 hr by HTFR assay

Sequence of Vascular endothelial growth factor receptor 2 (P35968 whole entry): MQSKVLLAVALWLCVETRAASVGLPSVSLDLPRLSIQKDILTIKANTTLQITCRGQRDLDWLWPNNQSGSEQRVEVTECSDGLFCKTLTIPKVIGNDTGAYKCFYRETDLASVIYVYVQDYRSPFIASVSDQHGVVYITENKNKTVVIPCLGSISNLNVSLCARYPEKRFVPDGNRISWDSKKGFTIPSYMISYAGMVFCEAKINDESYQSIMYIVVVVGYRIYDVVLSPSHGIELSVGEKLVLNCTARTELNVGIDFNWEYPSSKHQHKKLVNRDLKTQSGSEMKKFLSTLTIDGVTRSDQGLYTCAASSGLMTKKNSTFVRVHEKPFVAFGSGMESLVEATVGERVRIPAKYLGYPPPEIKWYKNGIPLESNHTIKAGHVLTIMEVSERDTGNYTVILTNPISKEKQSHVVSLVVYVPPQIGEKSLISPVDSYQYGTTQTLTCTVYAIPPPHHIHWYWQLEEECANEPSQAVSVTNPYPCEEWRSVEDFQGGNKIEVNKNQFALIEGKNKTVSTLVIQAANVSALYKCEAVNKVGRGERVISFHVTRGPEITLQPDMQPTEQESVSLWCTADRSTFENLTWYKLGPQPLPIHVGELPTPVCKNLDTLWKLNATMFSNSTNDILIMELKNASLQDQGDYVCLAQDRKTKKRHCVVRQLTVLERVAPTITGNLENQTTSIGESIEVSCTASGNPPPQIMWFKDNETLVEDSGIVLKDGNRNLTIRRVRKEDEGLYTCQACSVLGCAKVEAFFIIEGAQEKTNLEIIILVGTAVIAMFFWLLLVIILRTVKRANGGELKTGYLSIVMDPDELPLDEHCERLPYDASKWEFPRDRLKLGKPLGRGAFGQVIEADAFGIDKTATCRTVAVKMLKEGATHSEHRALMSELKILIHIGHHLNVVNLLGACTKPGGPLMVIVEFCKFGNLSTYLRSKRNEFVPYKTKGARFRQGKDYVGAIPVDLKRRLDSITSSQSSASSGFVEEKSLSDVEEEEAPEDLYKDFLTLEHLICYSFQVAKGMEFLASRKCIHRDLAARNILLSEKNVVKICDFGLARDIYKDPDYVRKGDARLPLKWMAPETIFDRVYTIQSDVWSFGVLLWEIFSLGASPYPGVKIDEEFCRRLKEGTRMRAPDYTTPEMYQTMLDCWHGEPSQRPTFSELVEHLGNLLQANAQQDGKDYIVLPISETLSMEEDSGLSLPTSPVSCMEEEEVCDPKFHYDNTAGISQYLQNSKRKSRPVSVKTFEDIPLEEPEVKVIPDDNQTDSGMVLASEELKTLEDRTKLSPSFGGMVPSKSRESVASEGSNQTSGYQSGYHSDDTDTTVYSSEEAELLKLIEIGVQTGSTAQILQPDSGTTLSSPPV
Sequence of Platelet-derived growth factor receptor beta (P09619 whole entry): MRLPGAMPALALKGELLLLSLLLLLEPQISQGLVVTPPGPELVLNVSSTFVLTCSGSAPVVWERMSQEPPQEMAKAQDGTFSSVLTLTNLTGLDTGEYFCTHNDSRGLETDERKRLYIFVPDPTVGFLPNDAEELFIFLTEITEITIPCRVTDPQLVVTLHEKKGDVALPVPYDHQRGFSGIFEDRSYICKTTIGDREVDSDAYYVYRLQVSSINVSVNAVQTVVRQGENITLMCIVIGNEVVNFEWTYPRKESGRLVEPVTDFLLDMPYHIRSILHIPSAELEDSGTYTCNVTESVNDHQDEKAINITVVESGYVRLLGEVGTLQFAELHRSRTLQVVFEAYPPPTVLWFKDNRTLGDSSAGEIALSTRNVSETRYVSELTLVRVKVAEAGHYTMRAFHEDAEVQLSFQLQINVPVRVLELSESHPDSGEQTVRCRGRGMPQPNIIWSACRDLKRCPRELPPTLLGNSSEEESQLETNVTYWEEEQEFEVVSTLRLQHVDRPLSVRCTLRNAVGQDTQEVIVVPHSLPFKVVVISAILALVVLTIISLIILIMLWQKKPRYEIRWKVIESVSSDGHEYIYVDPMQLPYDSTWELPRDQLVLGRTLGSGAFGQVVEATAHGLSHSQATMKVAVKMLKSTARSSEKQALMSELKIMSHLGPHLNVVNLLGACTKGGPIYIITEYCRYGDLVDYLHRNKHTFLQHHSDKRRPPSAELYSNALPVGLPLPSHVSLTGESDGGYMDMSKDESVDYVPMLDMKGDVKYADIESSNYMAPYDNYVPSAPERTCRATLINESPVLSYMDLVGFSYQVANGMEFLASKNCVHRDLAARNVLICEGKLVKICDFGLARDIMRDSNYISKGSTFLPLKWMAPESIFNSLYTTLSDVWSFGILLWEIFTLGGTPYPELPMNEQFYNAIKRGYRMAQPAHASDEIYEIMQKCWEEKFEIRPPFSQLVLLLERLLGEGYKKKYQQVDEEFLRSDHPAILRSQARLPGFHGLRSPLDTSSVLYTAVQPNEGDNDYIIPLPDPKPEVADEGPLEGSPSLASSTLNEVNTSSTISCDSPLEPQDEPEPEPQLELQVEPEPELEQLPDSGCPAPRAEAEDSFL

SMILES: C=C(CN1CCOCC1)C(=O)Nc1ccc(NC(=O)Nc2ccc(-c3cc(C)nc4noc(N)c34)cc2)cc1C
IC50 ([1]; read-out: IC50): 0.51 µM

SMILES: COc1ccc(NC(=O)Nc2ccc(-c3cc(-c4ccccc4)nc4noc(N)c34)cc2)cc1
IC50 [5]: Not Active
IC50 [1]: Not Active

SMILES: Nc1onc2nc(-c3ccccc3)cc(-c3ccc(NC(=O)Nc4ccc(Cl)c(C(F)(F)F)c4)cc3)c12
IC50 ([1]; read-out: IC50): 0.29 µM

SMILES: Nc1onc2nc(-c3ccccc3)cc(-c3ccc(NC(=O)Nc4ccc(F)cc4)cc3)c12
IC50 ([1]; read-out: IC50): 3.78 µM

SMILES: Cc1ccc(NC(=O)Nc2ccc(-c3cc(-c4ccccc4)nc4noc(N)c34)cc2)cc1
IC50 [5]: Not Active
IC50 ([1]; read-out: IC50): 1.26 µM

SMILES: Nc1onc2nc(-c3ccccc3)cc(-c3ccc(NC(=O)Nc4ccccc4F)cc3)c12
IC50 [5]: Not Active
IC50 [1]: Not Active
IC50 [6]: Not Active

SMILES: C=CC(=O)Nc1ccc(NC(=O)Nc2ccc(-c3cc(-c4ccccc4)nc4noc(N)c34)cc2)cc1
IC50 [5]: Not Active
IC50 [1]: Not Active
IC50 [6]: Not Active

SMILES: Nc1onc2nc(-c3ccccc3)cc(-c3ccc(NC(=O)Nc4ccccc4)cc3)c12
IC50 [5]: Not Active
IC50 ([1]; read-out: IC50): 3.52 µM

SMILES: Cc1ccc(F)c(NC(=O)Nc2ccc(-c3cccc4[nH]nc(N)c34)cc2)c1 [LINIFANIB]
IC50 [2]: 0.69 µM
IC50 [3]: 40.1 µM
IC50 [4]: 17 µM

Now from value to compound, other results behind:

IC50 ([1]; read-out: IC50): 0.04 µM
IC50 [2]: 0.54 µM
IC50 [4]: 39.5 µM
SMILES: Cc1cc(-c2ccc(NC(=O)Nc3cccc(Cl)c3)cc2)c2c(N)onc2n1
IC50 [3]: 15.2 µM

IC50 ([1]; read-out: IC50): 1.23 µM
SMILES: Cc1cccc(NC(=O)Nc2ccc(-c3cc(-c4ccccc4)nc4noc(N)c34)cc2)c1

IC50 [5]: Not Active
IC50 [1]: Not Active
SMILES: C/C=C\C(=O)Nc1ccc(NC(=O)Nc2ccc(-c3cc(C)nc4noc(N)c34)cc2)cc1C

IC50 ([1]; read-out: IC50): 0.02 µM
IC50 [2]: 0.61 µM
IC50 [4]: 37.4 µM
SMILES: Cc1cc(-c2ccc(NC(=O)Nc3cccc(C(F)(F)F)c3)cc2)c2c(N)onc2n1
IC50 [3]: 7.95 µM

IC50 ([1]; read-out: IC50): 2.23 µM
SMILES: Nc1onc2nc(-c3ccccc3)cc(-c3ccc(NC(=O)Nc4cccc(Cl)c4)cc3)c12

IC50 ([1]; read-out: IC50): 0.008 µM
IC50 [2]: 0.12 µM
IC50 [4]: 10.5 µM
SMILES: Cc1cccc(NC(=O)Nc2ccc(-c3cc(C)nc4noc(N)c34)cc2)c1
IC50 [3]: 11.7 µM

IC50 ([1]; read-out: IC50): 3.25 µM
SMILES: Nc1onc2nc(-c3ccccc3)cc(-c3ccc(NC(=O)Nc4cccc(F)c4)cc3)c12

IC50 [5]: Not Active
IC50 [1]: Not Active
SMILES: C/C=C\C(=O)Nc1ccc(NC(=O)Nc2ccc(-c3cc(C)nc4noc(N)c34)cc2)cc1

IC50 ([1]; read-out: IC50): 0.02 µM
IC50 [2]: 0.34 µM
IC50 [4]: 28.8 µM
SMILES: Cc1cc(-c2ccc(NC(=O)Nc3ccc(Cl)c(C(F)(F)F)c3)cc2)c2c(N)onc2n1
IC50 [3]: 12.6 µM

IC50 ([1]; read-out: IC50): 0.82 µM
SMILES: Cc1cc(-c2ccc(NC(=O)Nc3ccccc3Cl)cc2)c2c(N)onc2n1
